Experimental findings from patent US20240238423A9, “TETRAHYDROISOQUINOLINE HETEROBIFUNCTIONAL BCL-XL DEGRADERS” (Treeline Biosciences, Inc., priority 2022, published 2024) are described below.

This assay deals with T1, Human BCL-XL protein (N-terminal HiBiT tagged BCL-XL in HT1080 cells) (Homo sapiens, UniProt Q07817).
T1 construct: expressed in transfected cells; host or cells: HT-1080 (ATCC CCL-121), stably transduced with lentivirus pLV-UBC-N-HiBiT-BCL-XL-PGK-puro and selected with puromycin
T1 sequence (Q07817 whole entry): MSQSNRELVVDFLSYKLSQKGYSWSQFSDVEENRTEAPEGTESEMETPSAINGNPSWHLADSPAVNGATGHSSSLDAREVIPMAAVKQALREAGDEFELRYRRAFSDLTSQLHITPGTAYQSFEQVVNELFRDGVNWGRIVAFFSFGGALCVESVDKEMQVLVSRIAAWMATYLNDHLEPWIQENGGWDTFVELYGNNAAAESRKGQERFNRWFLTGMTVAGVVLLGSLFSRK
The experiment in a line: HiBiT based degradation assay. Type of assay: cell-based. The settings on record: HT1080 cells expressing HiBiT-BCL-XL; for Ymin (24 h) / Ymin (6 h): BCL-XL degradation normalized with DMSO control; for DC50: BCL-XL degradation. The essentials:
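HT1080 cells stably transduced by lentivirus with N-terminally HiBiT-tagged human BCL-XL and kept under 1 μg/mL puromycin selection were seeded at three thousand cells per well in 40 μL RPMI 1640 into 384-well plates pre-spotted with compounds across a concentration range. Luminescence was read on a PHERAstar FSX, normalized to DMSO, and fitted with a four-parameter logistic model.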
In general terms: The HiBiT peptide binds its large partner to form an active luciferase.

Like-named read-outs stand apart in the source and are kept apart here.

In the case of `Cc1c(OCC(F)(F)CN2C[C@@H](C)N(CC(=O)Nc3ccc4c(C5CCC(=O)NC5=O)nn(C)c4c3)[C@@H](C)C2)cccc1-c1ccc(N2CCc3cccc(C(=O)Nc4nc5ccccc5s4)c3C2)nc1C(=O)O` (stereo partly drawn) [Compound 177a, 6-[8-(1,3-benzothiazol-2-ylcarbamoyl)-3,4-dihydro-1H-isoquinolin-2-yl]-3-[3-[3-[(3R,5S)-4-[2-[[3-(2,6-dioxo-3-piperidyl)-1-methyl-indazol-6-yl]amino]-2-oxo-ethyl]-3,5-dimethyl-piperazin-1-yl]-2,2-difluoro-propoxy]-2-methyl-phenyl]pyridine-2-carboxylic acid], the “Ymin (24 h)” value (24 h) is “B (50% ≤ Ymin < 70%)”. For the same molecule, the DC50 (24 h, read-out: EC50 (24 h)) lay in the range of 100 to 1000 nM.

In the case of `Cc1c(Oc2ccc(CCCC(=O)N3CCN(c4ccc5c(C6CCC(=O)NC6=O)nn(C)c5c4)CC3)cc2)cccc1-c1ccc(N2CCc3cccc(C(=O)Nc4nc5ccccc5s4)c3C2)nc1C(=O)O` (stereo not drawn) [Compound 178, 6-(8-(benzo[d]thiazol-2-ylcarbamoyl)-3,4-dihydroisoquinolin-2(1H)-yl)-3-(3-(4-(4-(4-(3-(2,6-dioxopiperidin-3-yl)-1-methyl-1H-indazol-6-yl)piperazin-1-yl)-4-oxobutyl)phenoxy)-2-methylphenyl)picolinic acid], the “Ymin (24 h)” value (24 h) is listed as “B (50% ≤ Ymin < 70%)”. Also, the DC50 (24 h, read-out: EC50 (24 h)) was less than 100 nM.

In the case of `Cc1c(OCC(F)(F)CN2C[C@@H](C)N(CC(=O)N3CCN(c4cccc5c(C6CCC(=O)NC6=O)nn(C)c45)CC3)[C@@H](C)C2)cccc1-c1ccc(N2CCc3cccc(C(=O)Nc4nc5ccccc5s4)c3C2)nc1C(=O)O` (stereo partly drawn) [Compound 179a, 6-[8-(1,3-benzothiazol-2-ylcarbamoyl)-3,4-dihydro-1H-isoquinolin-2-yl]-3-[3-[3-[(3R,5S)-4-[2-[4-[3-(2,6-dioxo-3-piperidyl)-1-methyl-indazol-7-yl]piperazin-1-yl]-2-oxo-ethyl]-3,5-dimethyl-piperazin-1-yl]-2,2-difluoro-propoxy]-2-methyl-phenyl]pyridine-2-carboxylic acid], the “Ymin (24 h)” value (24 h) is given as “A (Ymin < 50%)”. The DC50 (24 h, read-out: EC50 (24 h)) was less than 100 nM.

Turning to `Cc1c(OCC[C@@H]2CCCN(CC(=O)Nc3ccc4c(C5CCC(=O)NC5=O)nn(C)c4c3)C2)cccc1-c1ccc(N2CCc3cccc(C(=O)Nc4nc5ccccc5s4)c3C2)nc1C(=O)O` (stereo partly drawn) [Compound 180a, 6-(8-(benzo[d]thiazol-2-ylcarbamoyl)-3,4-dihydroisoquinolin-2(1H)-yl)-3-(3-(2-((3S)-1-(2-((3-(2,6-dioxopiperidin-3-yl)-1-methyl-1H-indazol-6-yl)amino)-2-oxoethyl)piperidin-3-yl)ethoxy)-2-methylphenyl)picolinic acid], the “Ymin (24 h)” value (24 h) is on record as “B (50% ≤ Ymin < 70%)”. Moreover, the DC50 (24 h, read-out: EC50 (24 h)) is less than 100 nM.

As to `Cc1c(OCC[C@H]2CCCN(CC(=O)Nc3ccc4c(C5CCC(=O)NC5=O)nn(C)c4c3)C2)cccc1-c1ccc(N2CCc3cccc(C(=O)Nc4nc5ccccc5s4)c3C2)nc1C(=O)O` (stereo partly drawn) [Compound 180b, 6-(8-(benzo[d]thiazol-2-ylcarbamoyl)-3,4-dihydroisoquinolin-2(1H)-yl)-3-(3-(2-((3R)-1-(2-((3-(2,6-dioxopiperidin-3-yl)-1-methyl-1H-indazol-6-yl)amino)-2-oxoethyl)piperidin-3-yl)ethoxy)-2-methylphenyl)picolinic acid], the “Ymin (24 h)” value (24 h) is “B (50% ≤ Ymin < 70%)”. For the setting “24 h, read-out: EC50 (24 h)”, the DC50 is less than 100 nM.

Regarding `Cc1c(OCC(F)(F)CC2CCN(CC(=O)Nc3ccc4c(C5CCC(=O)NC5=O)nn(C)c4c3)CC2)cccc1-c1ccc(N2CCc3cccc(C(=O)Nc4nc5ccccc5s4)c3C2)nc1C(=O)O` (stereo not drawn) [Compound 181, 6-[8-(1,3-benzothiazol-2-ylcarbamoyl)-3,4-dihydro-1H-isoquinolin-2-yl]-3-[3-[3-[1-[2-[[3-(2,6-dioxo-3-piperidyl)-1-methyl-indazol-6-yl]amino]-2-oxo-ethyl]-4-piperidyl]-2,2-difluoro-propoxy]-2-methyl-phenyl]pyridine-2-carboxylic acid], under “24 h”, the “Ymin (24 h)” value was “A (Ymin < 50%)”. Moreover, the DC50 (24 h, read-out: EC50 (24 h)) was less than 100 nM.

Regarding `Cc1c(O[C@H]2CC[C@H](CC(=O)N3CCN(c4cccc5c(C6CCC(=O)NC6=O)nn(C)c45)CC3)CC2)cccc1-c1ccc(N2CCc3cccc(C(=O)Nc4nc5ccccc5s4)c3C2)nc1C(=O)O` (stereo partly drawn) [Compound 182a, 6-(8-(benzo[d]thiazol-2-ylcarbamoyl)-3,4-dihydroisoquinolin-2(1H)-yl)-3-(3-(((1r,4r)-4-(2-(4-(3-(2,6-dioxopiperidin-3-yl)-1-methyl-1H-indazol-7-yl)piperazin-1-yl)-2-oxoethyl)cyclohexyl)oxy)-2-methylphenyl)picolinic acid], the “Ymin (24 h)” value (24 h) is on record as “B (50% ≤ Ymin < 70%)”. Further, the DC50 (24 h, read-out: EC50 (24 h)) was less than 100 nM.

Regarding `Cc1cc(OCCCN2C[C@@H](C)N(CC(=O)N3CCN(c4cccc5c(C6CCC(=O)NC6=O)nn(C)c45)CC3)[C@@H](C)C2)ccc1-c1ccc(N2CCc3cccc(C(=O)Nc4nc5ccccc5s4)c3C2)nc1C(=O)O` (stereo partly drawn) [Compound 183a, 6-[8-(1,3-benzothiazol-2-ylcarbamoyl)-3,4-dihydro-1H-isoquinolin-2-yl]-3-[4-[3-[(3S,5R)-4-[2-[4-[3-(2,6-dioxo-3-piperidyl)-1-methyl-indazol-7-yl]piperazin-1-yl]-2-oxo-ethyl]-3,5-dimethyl-piperazin-1-yl]propoxy]-2-methyl-phenyl]pyridine-2-carboxylic acid], the “Ymin (6 h)” value (6 h) is “B (50% ≤ Ymin < 70%)”. In addition, the “Ymin (24 h)” value (24 h) was “A (Ymin < 50%)”. In addition, the DC50 reads like this: (6 h, read-out: EC50 (6 h)) less than 100 nM; (24 h, read-out: EC50 (24 h)) less than 100 nM.

Regarding `Cc1cc(OCCCC2CCN(CC(=O)Nc3ccc4c(C5CCC(=O)NC5=O)nn(C)c4c3)CC2)ccc1-c1ccc(N2CCc3cccc(C(=O)Nc4nc5ccccc5s4)c3C2)nc1C(=O)O` (stereo not drawn) [Compound 184, 6-[8-(1,3-benzothiazol-2-ylcarbamoyl)-3,4-dihydro-1H-isoquinolin-2-yl]-3-[4-[3-[1-[2-[[3-(2,6-dioxo-3-piperidyl)-1-methyl-indazol-6-yl]amino]-2-oxo-ethyl]-4-piperidyl]propoxy]-2-methyl-phenyl]pyridine-2-carboxylic acid], where the note is “6 h”, the “Ymin (6 h)” value is “A (Ymin < 50%)”. Where the note is “24 h”, the “Ymin (24 h)” value is on record as “A (Ymin < 50%)”. For the same molecule, the DC50 by setting is: (6 h, read-out: EC50 (6 h)) less than 100 nM; (24 h, read-out: EC50 (24 h)) less than 100 nM.

In the case of `Cc1c(OCC(F)(F)CN2C[C@@H](C)N(CC(=O)N3CCN(c4ccc5c(C6CCC(=O)NC6=O)nn(C)c5c4)CC3)[C@@H](C)C2)cccc1-c1ccc(N2CCc3cccc(C(=O)Nc4nc5ccccc5s4)c3C2)nc1C(=O)O` (stereo partly drawn) [Compound 185a, 6-[8-(1,3-benzothiazol-2-ylcarbamoyl)-3,4-dihydro-1H-isoquinolin-2-yl]-3-[3-[3-[(3R,5S)-4-[2-[4-[3-(2,6-dioxo-3-piperidyl)-1-methyl-indazol-6-yl]piperazin-1-yl]-2-oxo-ethyl]-3,5-dimethyl-piperazin-1-yl]-2,2-difluoro-propoxy]-2-methyl-phenyl]pyridine-2-carboxylic acid], the “Ymin (24 h)” value (24 h) is reported as “A (Ymin < 50%)”. Further, for the setting “24 h, read-out: EC50 (24 h)”, the DC50 is less than 100 nM.
